Assay results taken from patent US9822126B1, “Substituted 1,2,3-triazol-1-yl-methyl-2,3-dihydro-2-methyl-6-nitroimidazo[2,1-b]oxazoles as anti-mycobacterial agents and a process for the preparation thereof” (priority 2014, dated 2017).
≈ marks a conversion by molar mass, not a printed value. Read-outs that look alike come from different tables or passages of the source.

Legend:
Assay in all cases: microbe, parasite or virus in culture
Format in all cases: cell-based
[1] = test system: Rif^R: rifampicin resistant tuberculosis; conditions: Mycobacterium tuberculosis, read-out: MIC (Rif^R)
[2] = test system: M. tuberculosis MDR (resistant to isoniazid and rifampicin); conditions: Mycobacterium tuberculosis
[3] = test system: M. tuberculosis XDR (resistant to isoniazid, rifampicin, amikacin and moxifloxacin); conditions: Mycobacterium tuberculosis, 504 h, read-out: MIC XDR
[4] = read-out: MIC against multi and extensive-drug resistant strains

Row | SMILES | MIC [1] | MIC ([2]; 504 h, read-out: MIC MDR) | MIC [3] | MIC [2, 4] | MIC ([2]; read-out: MIC value)
1 | C[C@]1(Cn2cc(-c3ccc(OC(F)(F)F)cc3)nn2)Cn2cc([N+](=O)[O-])nc2O1 [I1, (R)-2-Methyl-6-nitro-2-((4-(4-(trifluoromethoxy)phenyl)-1H-1,2,3-triazol-1-yl)methyl)-2,3-dihydroimidazo[2,1-b]oxazole] | 2 µg/mL (≈ 4.87 µM) | 2 µg/mL (≈ 4.87 µM) | 1 µg/mL (≈ 2.44 µM) |  | 
2 | C[C@]1(Cn2cc(-c3ccc(C(F)(F)F)cc3)nn2)Cn2cc([N+](=O)[O-])nc2O1 [I2, (R)-2-Methyl-6-nitro-2-((4-(4-(trifluoromethyl)phenyl)-1H-1,2,3-triazol-1-yl)methyl)-2,3-dihydroimidazo[2,1-b]oxazole] | 4 µg/mL (≈ 10.1 µM) | 2 µg/mL (≈ 5.07 µM) | 2 µg/mL (≈ 5.07 µM) |  | 
3 | C[C@]1(Cn2cc(-c3ccc(F)cc3)nn2)Cn2cc([N+](=O)[O-])nc2O1 [I3, (R)-2-((4-(4-Fluorophenyl)-1H-1,2,3-triazol-1-yl)methyl)-2-methyl-6nitro-2,3-dihydro imidazo[2,1-b]oxazole] | 2 µg/mL (≈ 5.81 µM) | 2 µg/mL (≈ 5.81 µM) | 2 µg/mL (≈ 5.81 µM) |  | 
4 | Cc1cc(-c2cn(C[C@@]3(C)Cn4cc([N+](=O)[O-])nc4O3)nn2)ccc1F [I4, (R)-2-((4-(4-Fluoro-3-methylphenyl)-1H-1,2,3-triazol-1-yl)methyl)-2-methyl-6-nitro-2,3-dihydroimidazo[2,1-b]oxazole] | 1 µg/mL (≈ 2.79 µM) | 4 µg/mL (≈ 11.2 µM) | 2 µg/mL (≈ 5.58 µM) |  | 
5 | C[C@]1(Cn2cc(-c3ccc(F)cc3F)nn2)Cn2cc([N+](=O)[O-])nc2O1 [I5, (R)-2-((4-(2,4-Difluorophenyl)-1H-1,2,3-triazol-1-yl)methyl)-2-methyl-6-nitro-2,3-dihydroimidazo[2,1-b]oxazole] | 4 µg/mL (≈ 11 µM) | 1 µg/mL (≈ 2.76 µM) | 4 µg/mL (≈ 11 µM) |  | 
6 | C[C@]1(Cn2cc(-c3ccc(Oc4ccccc4)cc3)nn2)Cn2cc([N+](=O)[O-])nc2O1 [I6, (R)-2-Methyl-6-nitro-2-((4-(4-phenoxyphenyl)-1H-1,2,3-triazol-1-yl)methyl)-2,3-dihydroimidazo[2,1-b]oxazole] | 1 µg/mL (≈ 2.39 µM) | 1 µg/mL (≈ 2.39 µM) | 1 µg/mL (≈ 2.39 µM) |  | 
7 | CCCCCc1cn(C[C@@]2(C)Cn3cc([N+](=O)[O-])nc3O2)nn1 [I7, (R)-2-[(4-Pentyl-1H-1,2,3-triazol-1-yl)methyl]-2,3-dihydro-2-methyl-6-nitroimidazo[2,1-b]oxazole] | 8 µg/mL (≈ 25 µM) | 2 µg/mL (≈ 6.24 µM) | 8 µg/mL (≈ 25 µM) |  | 
8 | C[C@]1(Cn2cc(COc3ccc(OC(F)(F)F)cc3)nn2)Cn2cc([N+](=O)[O-])nc2O1 [I8, (R)-2-Methyl-6-nitro-2-((4-((4-(trifluoromethoxy)phenoxy)methyl)-1H-1,2,3-triazol-1-yl)methyl)-2,3-dihydroimidazo[2,1-b]oxazole] | 2 µg/mL (≈ 4.54 µM) | 2 µg/mL (≈ 4.54 µM) | 2 µg/mL (≈ 4.54 µM) |  | 
9 | C[C@]1(Cn2cc(COc3ccc(C(F)(F)F)cc3)nn2)Cn2cc([N+](=O)[O-])nc2O1 [I9, (R)-2-Methyl-6-nitro-2-((4-((4-(trifluoromethyl)phenoxy)methyl)-1H-1,2,3-triazol-1-yl)methyl)-2,3-dihydroimidazo[2,1-b]oxazole] | 4 µg/mL (≈ 9.43 µM) | 4 µg/mL (≈ 9.43 µM) | 4 µg/mL (≈ 9.43 µM) |  | 
10 | C[C@]1(Cn2cc(COc3cccc(Cl)c3)nn2)Cn2cc([N+](=O)[O-])nc2O1 [I10, (R)-2-((4-((3-Chlorophenoxy)methyl)-1H-1,2,3-triazol-1-yl)methyl)-2-methyl-6-nitro-2,3-dihydroimidazo[2,1-b]oxazole] | 2 µg/mL (≈ 5.12 µM) | 2 µg/mL (≈ 5.12 µM) | 4 µg/mL (≈ 10.2 µM) |  | 
11 | C[C@]1(Cn2cc(COc3ccc(Br)cc3)nn2)Cn2cc([N+](=O)[O-])nc2O1 [I11, (R)-2-((4-((4-Bromophenoxy)methyl)-1H-1,2,3-triazol-1-yl)methyl)-2-methyl-6-nitro-2,3-dihydroimidazo[2,1-b]oxazole] | 0.12 µg/mL (≈ 0.276 µM) | 0.12 µg/mL (≈ 0.276 µM) | 0.25 µg/mL (≈ 0.574 µM) | 0.12 µg/mL (≈ 0.276 µM) | < 1 µg/mL
12 | Cc1ccc(OCc2cn(C[C@@]3(C)Cn4cc([N+](=O)[O-])nc4O3)nn2)cc1 [I12, (R)-2-Methyl-6-nitro-2-((4-((p-tolyloxy)methyl)-1H-1,2,3-triazol-1-yl)methyl)-2,3-dihydroimidazo[2,1-b]oxazole] | 8 µg/mL (≈ 21.6 µM) | 2 µg/mL (≈ 5.4 µM) | 8 µg/mL (≈ 21.6 µM) |  | 
13 | Cc1cccc(OCc2cn(C[C@@]3(C)Cn4cc([N+](=O)[O-])nc4O3)nn2)c1 [I13, (R)-2-Methyl-6-nitro-2-((4-((m-tolyloxy)methyl)-1H-1,2,3-triazol-1-yl)methyl)-2,3-dihydroimidazo[2,1-b]oxazole] | 1 µg/mL (≈ 2.7 µM) | 1 µg/mL (≈ 2.7 µM) | 2 µg/mL (≈ 5.4 µM) |  | 
14 | Cc1ccccc1OCc1cn(C[C@@]2(C)Cn3cc([N+](=O)[O-])nc3O2)nn1 [I14, (R)-2-Methyl-6-nitro-2-((4-((o-tolyloxy)methyl)-1H-1,2,3-triazol-1-yl)methyl)-2,3-dihydroimidazo[2,1-b]oxazole] | 1 µg/mL (≈ 2.7 µM) | 1 µg/mL (≈ 2.7 µM) | 1 µg/mL (≈ 2.7 µM) |  | 
15 | CCc1ccc(OCc2cn(C[C@@]3(C)Cn4cc([N+](=O)[O-])nc4O3)nn2)cc1 [I15, (R)-2-((4-((4-Ethylphenoxy)methyl)-1H-1,2,3-triazol-1-yl)methyl)-2-methyl-6-nitro-2,3-dihydroimidazo[2,1-b]oxazole] | 4 µg/mL (≈ 10.4 µM) | 2 µg/mL (≈ 5.2 µM) | 4 µg/mL (≈ 10.4 µM) |  | 
16 | C[C@]1(Cn2cc(COc3cccc(F)c3)nn2)Cn2cc([N+](=O)[O-])nc2O1 [I16, (R)-2-((4-((3-Fluorophenoxy)methyl)-1H-1,2,3-triazol-1-yl)methyl)-2-methyl-6-nitro-2,3-dihydroimidazo[2,1-b]oxazole] | 2 µg/mL (≈ 5.34 µM) | 2 µg/mL (≈ 5.34 µM) | 2 µg/mL (≈ 5.34 µM) |  | 
17 | C[C@]1(Cn2cc(COc3ccccc3F)nn2)Cn2cc([N+](=O)[O-])nc2O1 [I17, (R)-2-((4-((2-Fluorophenoxy)methyl)-1H-1,2,3-triazol-1-yl)methyl)-2-methyl-6-nitro-2,3-dihydroimidazo[2,1-b]oxazole] | 1 µg/mL (≈ 2.67 µM) | 0.5 µg/mL (≈ 1.34 µM) | 1 µg/mL (≈ 2.67 µM) | 0.5 µg/mL (≈ 1.34 µM) | < 1 µg/mL
18 | CC(C)c1ccc(OCc2cn(C[C@@]3(C)Cn4cc([N+](=O)[O-])nc4O3)nn2)cc1 [I18, (R)-2-((4-((4-Isopropylphenoxy)methyl)-1H-1,2,3-triazol-1-yl)methyl)-2-methyl-6-nitro-2,3-dihydroimidazo[2,1-b]oxazole] | 2 µg/mL (≈ 5.02 µM) | 1 µg/mL (≈ 2.51 µM) | 4 µg/mL (≈ 10 µM) |  | 
19 | C[C@]1(Cn2cc(COc3ccccn3)nn2)Cn2cc([N+](=O)[O-])nc2O1 [I19, (R)-2-Methyl-6-nitro-2-((4-((pyridin-2-yloxy)methyl)-1H-1,2,3-triazol-1-yl)methyl)-2,3-dihydroimidazo[2,1-b]oxazole] | 0.5 µg/mL (≈ 1.4 µM) | 0.25 µg/mL (≈ 0.7 µM) | 0.5 µg/mL (≈ 1.4 µM) |  | < 1 µg/mL
20 | Cc1ccc(SCc2cn(C[C@@]3(C)Cn4cc([N+](=O)[O-])nc4O3)nn2)cc1 [I20, (R)-2-Methyl-6-nitro-2-((4-((p-tolylthio)methyl)-1H-1,2,3-triazol-1-yl)methyl)-2,3-dihydroimidazo[2,1-b]oxazole] | 0.25 µg/mL (≈ 0.647 µM) | 0.5 µg/mL (≈ 1.29 µM) | 2 µg/mL (≈ 5.18 µM) |  | < 1 µg/mL
21 | Cc1ccc(OCCc2cn(C[C@@]3(C)Cn4cc([N+](=O)[O-])nc4O3)nn2)cc1 [I21, (R)-2-Methyl-6-nitro-2-((4-(2-(p-tolyloxy)ethyl)-1H-1,2,3-triazol-1-yl)methyl)-2,3-dihydroimidazo[2,1-b]oxazole] | 1 µg/mL (≈ 2.6 µM) | 0.25 µg/mL (≈ 0.65 µM) | 0.25 µg/mL (≈ 0.65 µM) | 0.25 µg/mL (≈ 0.65 µM) | < 1 µg/mL
22 | C[C@]1(Cn2cc(CN3CCOCC3)nn2)Cn2cc([N+](=O)[O-])nc2O1 [I22, (R)-2-Methyl-2-((4-(morpholinomethyl)-1H-1,2,3-triazol-1-yl)methyl)-6-nitro-2,3-dihydroimidazo[2,1-b]oxazole] | 2 µg/mL (≈ 5.72 µM) | 2 µg/mL (≈ 5.72 µM) | 2 µg/mL (≈ 5.72 µM) |  | 
